Measured values as given in the NIST ThermoML archive (doi:10.1021/je050484k).
Numbers after ± are expanded uncertainties.

Experiments:
[1] = xn = mol fraction of the nth substance listed; details: for surface tension liquid-gas: Pendant drop shape; for mass density: 101 kPa, Liquid
[2] = for surface tension liquid-gas: Pendant drop shape; for mass density: 101 kPa, Liquid

COCCOC [1,2-dimethoxyethane] + Cc1cc(C)cc(C)c1
[1]
Details	mass density [kg/m3]	surface tension liquid-gas [mN/m]
298.15 K, x1 = 0.0487	860.76 ± 0.45	–
298.15 K, x1 = 0.0997	860.5 ± 0.44	27.6 ± 0.3
298.15 K, x1 = 0.1518	860.24 ± 0.44	–
298.15 K, x1 = 0.201	860.03 ± 0.43	27.07 ± 0.3
298.15 K, x1 = 0.2499	859.85 ± 0.42	–
298.15 K, x1 = 0.2978	859.68 ± 0.42	26.59 ± 0.29
298.15 K, x1 = 0.3484	859.56 ± 0.41	–
298.15 K, x1 = 0.3973	859.41 ± 0.41	26.14 ± 0.29
298.15 K, x1 = 0.451	859.35 ± 0.4	–
298.15 K, x1 = 0.4991	859.29 ± 0.4	25.71 ± 0.28
298.15 K, x1 = 0.5498	859.31 ± 0.39	–
298.15 K, x1 = 0.5977	859.3 ± 0.39	25.35 ± 0.28
298.15 K, x1 = 0.6494	859.42 ± 0.38	–
298.15 K, x1 = 0.7011	859.52 ± 0.38	25 ± 0.27
298.15 K, x1 = 0.7499	859.69 ± 0.37	–
298.15 K, x1 = 0.7999	859.91 ± 0.37	24.67 ± 0.27
298.15 K, x1 = 0.8474	860.25 ± 0.36	–
298.15 K, x1 = 0.9008	860.54 ± 0.36	24.3 ± 0.27
298.15 K, x1 = 0.9484	860.95 ± 0.36	–
298.15 K, x1 = 1	861.38 ± 0.35	23.93 ± 0.26
313.15 K, x1 = 0.0504	848.29 ± 0.46	–
313.15 K, x1 = 0.0988	847.89 ± 0.46	26.2 ± 0.29
313.15 K, x1 = 0.1505	847.48 ± 0.45	–
313.15 K, x1 = 0.1996	847.11 ± 0.45	25.69 ± 0.29
313.15 K, x1 = 0.2474	846.78 ± 0.44	–
313.15 K, x1 = 0.3	846.42 ± 0.43	25.17 ± 0.28
313.15 K, x1 = 0.3495	846.14 ± 0.43	–
313.15 K, x1 = 0.4	845.85 ± 0.42	24.69 ± 0.28
313.15 K, x1 = 0.4498	845.61 ± 0.42	–
313.15 K, x1 = 0.5002	845.34 ± 0.41	24.24 ± 0.27
313.15 K, x1 = 0.5502	845.18 ± 0.41	–
313.15 K, x1 = 0.5998	845 ± 0.41	23.84 ± 0.27
313.15 K, x1 = 0.6509	844.85 ± 0.4	–
313.15 K, x1 = 0.6989	844.79 ± 0.4	23.49 ± 0.26
313.15 K, x1 = 0.7494	844.74 ± 0.39	–
313.15 K, x1 = 0.8	844.75 ± 0.39	23.17 ± 0.26
313.15 K, x1 = 0.8505	844.8 ± 0.39	–
313.15 K, x1 = 0.8991	844.92 ± 0.38	22.84 ± 0.26
313.15 K, x1 = 0.9502	845.1 ± 0.38	–
313.15 K, x1 = 1	845.28 ± 0.38	22.51 ± 0.25

COCCOC [1,2-dimethoxyethane] + Cc1ccc(C)c(C)c1
[1], x1 = 1
Details	mass density [kg/m3]	surface tension liquid-gas [mN/m]
298.15 K	861.38 ± 0.35	23.93 ± 0.26
313.15 K	845.31 ± 0.38	22.51 ± 0.25

Cc1cc(C)cc(C)c1 [1,3,5-trimethylbenzene]
[2]
Details	mass density [kg/m3]	surface tension liquid-gas [mN/m]
298.15 K	861.05 ± 0.46	28.09 ± 0.31
313.15 K	848.74 ± 0.47	26.82 ± 0.3

Cc1cc(C)cc(C)c1 [1,3,5-trimethylbenzene] + COCCO
[1]
Details	mass density [kg/m3]	surface tension liquid-gas [mN/m]
298.15 K, x2 = 0	861.05 ± 0.46	28.09 ± 0.31
298.15 K, x2 = 0.0486	862.67 ± 0.45	–
298.15 K, x2 = 0.0993	865.02 ± 0.44	28.19 ± 0.31
298.15 K, x2 = 0.1546	867.91 ± 0.43	–
298.15 K, x2 = 0.2021	870.67 ± 0.43	28.23 ± 0.31
298.15 K, x2 = 0.2469	873.41 ± 0.42	–
298.15 K, x2 = 0.3015	877.06 ± 0.41	28.34 ± 0.31
298.15 K, x2 = 0.3469	880.3 ± 0.4	–
298.15 K, x2 = 0.4011	884.41 ± 0.39	28.51 ± 0.31
298.15 K, x2 = 0.45	888.41 ± 0.38	–
298.15 K, x2 = 0.501	892.85 ± 0.37	28.73 ± 0.31
298.15 K, x2 = 0.5508	897.5 ± 0.36	–
298.15 K, x2 = 0.6004	902.45 ± 0.35	29.03 ± 0.31
298.15 K, x2 = 0.6509	907.91 ± 0.34	–
298.15 K, x2 = 0.7003	913.59 ± 0.33	29.35 ± 0.31
298.15 K, x2 = 0.7483	919.54 ± 0.32	–
298.15 K, x2 = 0.8008	926.64 ± 0.3	29.72 ± 0.31
298.15 K, x2 = 0.8501	933.84 ± 0.29	–
298.15 K, x2 = 0.9001	941.83 ± 0.28	30.2 ± 0.32
298.15 K, x2 = 0.9502	950.56 ± 0.27	–
313.15 K, x2 = 0	848.74 ± 0.47	26.82 ± 0.3
313.15 K, x2 = 0.0518	850.28 ± 0.46	–
313.15 K, x2 = 0.0979	852.21 ± 0.46	26.93 ± 0.3
313.15 K, x2 = 0.1489	854.71 ± 0.45	–
313.15 K, x2 = 0.198	857.38 ± 0.44	26.91 ± 0.3
313.15 K, x2 = 0.2497	860.47 ± 0.43	–
313.15 K, x2 = 0.3009	863.78 ± 0.42	26.97 ± 0.3
313.15 K, x2 = 0.349	867.13 ± 0.41	–
313.15 K, x2 = 0.3988	870.82 ± 0.41	27.02 ± 0.3
313.15 K, x2 = 0.4527	875.14 ± 0.4	–
313.15 K, x2 = 0.5005	879.25 ± 0.39	27.13 ± 0.3
313.15 K, x2 = 0.5497	883.79 ± 0.38	–
313.15 K, x2 = 0.6003	888.79 ± 0.37	27.36 ± 0.3
313.15 K, x2 = 0.6491	893.96 ± 0.36	–
313.15 K, x2 = 0.6995	899.77 ± 0.34	27.67 ± 0.3
313.15 K, x2 = 0.7498	906.04 ± 0.33	–
313.15 K, x2 = 0.8001	912.79 ± 0.32	28.01 ± 0.3
313.15 K, x2 = 0.8374	918.17 ± 0.31	–
313.15 K, x2 = 0.9006	928.15 ± 0.29	28.55 ± 0.3
313.15 K, x2 = 0.9491	936.64 ± 0.28	–

Cc1cc(C)cc(C)c1 [1,3,5-trimethylbenzene] + COCCOC
[1], x2 = 0
Details	mass density [kg/m3]	surface tension liquid-gas [mN/m]
298.15 K	861.05 ± 0.46	28.09 ± 0.31
313.15 K	848.74 ± 0.47	26.82 ± 0.3

COCCO [2-methoxyethan-1-ol]
[2]
Details	mass density [kg/m3]	surface tension liquid-gas [mN/m]
298.15 K	960.02 ± 0.25	30.88 ± 0.32
313.15 K	946.17 ± 0.26	29.42 ± 0.31

COCCO [2-methoxyethan-1-ol] + Cc1cc(C)cc(C)c1
[1], x1 = 1
Details	mass density [kg/m3]	surface tension liquid-gas [mN/m]
298.15 K	960.02 ± 0.25	30.88 ± 0.32
313.15 K	946.17 ± 0.26	29.42 ± 0.31

COCCO [2-methoxyethan-1-ol] + Cc1ccc(C)c(C)c1
[1], x1 = 1
Details	mass density [kg/m3]	surface tension liquid-gas [mN/m]
298.15 K	960.02 ± 0.25	30.88 ± 0.32
313.15 K	946.17 ± 0.26	29.42 ± 0.31
